For test [1], the system named is corn root sections. Nature of the test: Nitrate ion uptake by corn root sections (nitrate ion specific electrode). The class given is cell-based, Corn (Pioneer Hybrid 3320). The settings on record: 50 ppm test compound; corn root sections. As to the method:
(§1) Corn (Pioneer Hybrid 3320), wheat (Arther), sorghum (SC-599-6), barley (CM-721), rice (m101), and cotton (Tamcot SP-37) seeds were disinfected with a 1% sodium hypochlorite solution and placed in 20.3 cm×30.5 cm×5.1 cm Pyrex glass utility trays which were lined with 4 layers of bleached paper towels and irrigated with 150 mL of 0.2 mM CaCl2 solution. The trays were covered with plastic food wrap, perforated to permit air exchange, and placed in a dark growth room which was maintained at 30° and 90% relative humidity. About 48 hours later, another 150 mL of 0.2 mM CaCl2 solution was added to each tray to maintain water sauration of the paper towels.
(§2) Two centimeter root sections were cut 0.5 to 2.5 cm from the tip of 3-day-old etiolated seedling roots. Batches of 20 (for corn and cotton), or 40 (for wheat, barley and rice) root sections were tied in cheesecloth bags, leaving a 20-30 cm length of string to facilitate movement between test solutions. Root tissue was washed at 30±1° by immersing the cheesecloth bags in a well-aerated 0.2 mM K2 HPO4 /KH2 PO4 solution, pH 6.0, for 4 hours. During the last 30 minutes of this washing period, 1 mM potassium nitrate solution was introduced to induce nitrate reductase activity. For uniformity, 100 mL washing solution was used for every bag of root sections (about 300 mg fresh tissue).
Nitrate ion uptake into corn roots was also determined by homogenizing root segments previously exposed to the nitrate absorption solution (without added ^36 ClO3⊖) with a precooled glass homogenizer in 5 mL of cold extraction medium. This medium contained 23 mM phosphate buffer pH 8.8, 5 mM cysteine, 2.5 mM EDTA, and 0.1% Neutronyx 600 (Onyx Chemical Co., Jersey City, N.J.). The resulting homogenate was centrifuged at 30,000 xg for 15 minutes, and an aliquot of the resulting supernatant solution reserved for nitrate ion determination, using an Orion nitrate ion specific electrode. The same tissue extract was used for nitrate reductase activity determination (below).
(§3) Test compounds are identified in Table I by Example number, and by the identity of substituents X, Y, Z and R in the following formula: [drawing 23]

Test [2] relates to corn root sections. Nature of the test: Ammonium ion uptake by corn root sections (ammonium ion-specific electrode). Type of test: cell-based, Corn (Pioneer Hybrid 3320). The settings on record: 50 ppm test compound. As to the method:
as §1
Two centimeter root sections were cut 0.5 to 2.5 cm from the tip of 3-day-old etiolated seedling roots. Batches of 20 (for corn and cotton), or 40 (for wheat, barley and rice) root sections were tied in cheesecloth bags, leaving a 20-30 cm length of string to facilitate movement between test solutions. Root tissue was washed at 30±1° by immersing the cheesecloth bags in a well-aerated 0.2 mM K2 HPO4 /KH2 PO4 solution, pH 6.0, for 4 hours. […]
Ammonium ion uptake was determined by measuring the disappearance of ammonium ion from an uptake solution containing 1 mmol ammonium chloride, 0.2 mM calcium chloride and 5 mM MES buffer, pH 6.0, with an Orion ammonium ion-specific electrode. […]

Test [3] has as its system corn root sections. Nature of the test: Nitrate ion uptake by corn root sections measured with radioactive chlorate ion (36ClO3-) as mimic. The class given is cell-based, Corn (Pioneer Hybrid 3320). The following applies: Zea mays, 50 ppm test compound, read-out: Ion Uptake (percent increase over control) 36ClO3-. As to the method:
as §1, §2
Nitrate ion uptake was measured using radioactive chlorate ion (^36 ClO3⊖) as a mimic for nitrate ion (Deane-Drummond et al., Plant Physiol. 70:50-54 (1982)). Uptake was measured by incubating 20 or 40 cheesecloth-bound washed root segments for 30 minutes in 100 mL absorption solution. The absorption solution contained 0.5 mM potassium nitrate, 0.2 mM calcium chloride, 5 mM MES buffer, and 5 mg/L sodium molybdate. This solution was adjusted to pH 6 with potassium hydroxide, and labeled with 10,000 cpm/ml of carrier-free radioactive chlorate ion. Absorption temperatures was maintained at 30±1° in a water bath, and moderate aeration was provided. All test compounds were added to the absorption solution. After the absorption period, the cheesecloth bag containing root sections was rinsed with distilled water for 10 seconds and then immersed in 100 mL of ice-cold, aerated 0.2 mM calcium chloride solution for 20 minutes to remove exchangeable components of absorbed ^36 ClO3⊖. Root sections were then removed from the cheesecloth bags, blotted dry, placed in a preweighed scintillation vial, and weighed to determine fresh tissue weight. One mL water and 10 mL Scinti Verse I (Fisher Scientific Co.) scintillation fluid were added, and radioactivity determined by scintillation counting. The rate of nitrate (^36 ClO3⊖) uptake in micromols per gram fresh weight of tissue per hour was calculated.
as §3

The next test deals with corn plants. Nature of the test: Greenhouse test, growth of nitrate-deficient corn plants. The class given is in vivo. The following applies: spray containing 50 ppm; 2-week old corn plants deficient in nitrate ion. As to the method:
Greenhouse tests were conducted by germinating corn seeds in a 25.4 cm pot containing a commercial potting soil mixture. After two weeks, seedlings were culled, leaving two plants in each pot. Distilled water was applied to maintain moisture levels and to leach carry-over nutrients from the potting soil mixtures. The remaining corn plants were randomized and divided into several groups for testing. Each test plant received a single 10 ml application of a test compound at 50 ppm, which was applied from a hand-held air-pressurized sprayer while the plant was rotated on a turntable in a spray hood. Each test compound was dissolved in a solution containing 50% (by volume) water and 50% AGWT diluent. AGWT diluent contains acetone, glycerol, water and polyoxyethylene sorbitan monolaurate in a volumetric ratio of 459:20:500:1. 250 mL of a complete, nitrate ion-free, potassium ion-free, and phosphate ion-free Hoagland nutrient solution were added to each pot twice weekly. This nutrient solution was supplemented with distilled water to maintain proper soil moisture. […] Plants were allowed to grow to maturity and yields were measured at the conclusion of each test.

The next test has as its system NO3 Reductase. Nature of the test: Nitrate reductase activity in extracts of treated corn root sections. Type of test: cell-based, Corn (Pioneer Hybrid 3320). The following applies: 50 ppm test compound. As to the method:
as §1, §2
Nitrate ion uptake into corn roots was also determined by homogenizing root segments previously exposed to the nitrate absorption solution (without added ^36 ClO3⊖) with a precooled glass homogenizer in 5 mL of cold extraction medium. This medium contained 23 mM phosphate buffer pH 8.8, 5 mM cysteine, 2.5 mM EDTA, and 0.1% Neutronyx 600 (Onyx Chemical Co., Jersey City, N.J.). The resulting homogenate was centrifuged at 30,000 xg for 15 minutes, and an aliquot of the resulting supernatant solution reserved for nitrate ion determination, using an Orion nitrate ion specific electrode. […]
Nitrate reductase activity was determined using a modification of the procedure of Hageman and Huckles- by, Methods Enzymol. […]

For the compound `CC(C)C[C@@H](CO)NC(=O)[C@@H]1CCCN1C(=O)OCc1ccccc1` [Example 1, N-Carbobenzoxy-L-prolyl-L-leucinol], the “Ion Uptake (percent increase over control) NO3-” value with corn root sections [1] is 40%. Also, the “Ion Uptake (percent increase over control) NH4+” value with corn root sections [2] was 80%. Also, the activation at 50 ppm in the test on corn root sections [3] was determined as 26%. In the test with corn plants, the “Growth of corn plants” value is listed as “stimulated growth”. Also, the “NO3- Reductase (percent increase over control)” value in the test on NO3 Reductase was -1%.

The record behind these values is patent publication US4511390A, “Aralkylcarbamoyl peptide alcohols” (E. I. Du Pont de Nemours and Company, priority 1983, dated 1985).
